From ChEMBL document CHEMBL1155122, “Design and optimization of aniline-substituted tetrahydroquinoline C5a receptor antagonists” (Bioorg Med Chem Lett, 2008) come the findings set out here.

The structures appear in SMILES notation.

Data set [1] deals with T1, C5a anaphylatoxin chemotactic receptor 1 (Homo sapiens, UniProt P21730).
T1 sequence (P21730 whole entry): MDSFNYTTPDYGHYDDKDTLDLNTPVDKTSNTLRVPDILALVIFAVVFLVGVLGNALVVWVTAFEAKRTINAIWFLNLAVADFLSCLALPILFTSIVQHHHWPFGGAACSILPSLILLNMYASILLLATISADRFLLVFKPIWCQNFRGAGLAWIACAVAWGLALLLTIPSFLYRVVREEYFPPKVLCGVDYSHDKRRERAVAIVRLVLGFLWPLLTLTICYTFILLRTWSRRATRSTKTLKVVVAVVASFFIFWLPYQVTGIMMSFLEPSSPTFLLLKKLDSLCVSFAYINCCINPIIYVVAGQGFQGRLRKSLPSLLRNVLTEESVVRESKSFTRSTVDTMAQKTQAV
Description: Antagonist activity at human recombinant C5a receptor in U937 cells assessed as inhibition of C5a-induced calcium mobilization by FLIPR assay. Type of data set: functional, cell-based, U-937.

Data set [2] concerns the target T1, C5a anaphylatoxin chemotactic receptor 1. Nature of the data set: Displacement of [125I]C5a from human recombinant C5a receptor in U937 cells. The class given is cell-based, U-937.
Data set [3] can be described thus: Volume of distribution at steady state in rat at 2 mg/kg, iv. The class given is ADME, organism-based. The arrangement: dose 2 mg/kg, route intravenous. The following applies: in vivo, read-out: Vdss.
The nature of data set [4]: Half life in rat at 10 mg/kg, po. The class given is ADME, organism-based. The arrangement: dose 10 mg/kg, route oral. The settings on record: in vivo.
Data set [5] concerns Rattus norvegicus. Nature of the data set: Cmax in rat at 10 mg/kg, po. Type of data set: ADME, organism-based. The arrangement: dose 10 mg/kg, route oral. The settings on record: in vivo.
The nature of data set [6]: Oral bioavailability in rat at 10 mg/kg. Type of data set: ADME, organism-based. The settings on record: in vivo.
Data set [7] is described as follows: Half life in rat at 2 mg/kg, iv. Type of data set: ADME, organism-based. The settings on record: in vivo. Set-up: dose 2 mg/kg, route intravenous.
Data set [8] can be described thus: Clearance in rat at 2 mg/kg, iv. The class given is ADME, organism-based. Set-up: dose 2 mg/kg, route intravenous. The following applies: in vivo.
For data set [9], the system named is Rattus norvegicus. Description: AUC in rat at 10 mg/kg, po. Type of data set: ADME, organism-based, Plasma. The arrangement: dose 10 mg/kg, route oral. The settings on record: in vivo.

As to `CCc1cccc(CC)c1-c1cc(OC)c2c(n1)CCCC2Nc1cc(F)ccc1C` (stereo unspecified), the IC50 in [1] came out at 1.4 µM.
With `CCc1cccc(CC)c1-c1cc(OC)c2c(n1)CCCC2Nc1cc(-c2ccccc2)ccc1C` (stereo unspecified), the IC50 in data set [1] is 2.5 µM.
Consider `CCc1cccc(CC)c1-c1cc(OC)c2c(n1)CCCC2Nc1cc(OC)ccc1-c1ccccc1` (stereo unspecified), for which, in data set [1], the IC50 was above 10 µM.
As for `CCc1cccc(CC)c1-c1cc(OC)c2c(n1)CCCC2Nc1cc(O)ccc1C` (stereo unspecified), the half-maximal inhibitory concentration (IC50) in data set [1] is above 10 µM.
`CCc1cccc(CC)c1-c1cc(OC)c2c(n1)CCCC2Nc1ccc(OC)cc1C` (stereo unspecified): the IC50 in data set [1] came out at 2.4 µM.
As for `CCc1cccc(CC)c1-c1cc(OC)c2c(n1)CCCC2Nc1ccccc1CCO` (stereo unspecified), in data set [2], the inhibitory constant (Ki) was 0.021 µM.
Regarding `CCc1cccc(CC)c1-c1cc(OC)c2c(n1)CCCC2Nc1ccccc1C(C)=O` (stereo unspecified), the half-inhibitory concentration (IC50) in data set [1] was above 10 µM.
As to `CCc1cccc(CC)c1-c1cc(OC)c2c(n1)CCCC2Nc1ccccc1C(=O)OC` (stereo unspecified), the IC50 in [1] is above 10 µM.
For the compound `CCc1cccc(CC)c1-c1cc(OC)c2c(n1)CCCC2Nc1cc(OC)ccc1C` (stereo unspecified), the Vd in [3] is 4.5 L/kg. Besides, the half-life in data set [4] is 5.3 h; in data set [7], 6.3 h. Moreover, the peak level in [5] (Cmax) was 290 ng/mL. In data set [6], this compound gave a bioavailability of 21%. Besides, the clearance in data set [8] worked out at 21 mL/min/kg. This compound also returned an AUC in data set [9] of 700 ng·h/mL. For the same compound, the half-maximal inhibitory concentration (IC50) in data set [1] came out at 0.14 µM.
For `CCc1cccc(CC)c1-c1cc(OC)c2c(n1)CCCC2Nc1ccccc1CO` (stereo unspecified), in [1], the half-inhibitory concentration (IC50) was 0.12 µM.
Consider `CCc1cccc(CC)c1-c1cc(OC)c2c(n1)CCCC2Nc1cc(C)ccc1C` (stereo unspecified), for which the IC50 in [1] was determined as 0.43 µM.
For `CCc1cccc(CC)c1-c1cc(OC)c2c(n1)CCCC2Nc1cc(CO)ccc1C` (stereo unspecified), the half-maximal inhibitory concentration (IC50) in data set [1] was above 10 µM.
Still for that read-out and setting: under `CCc1cccc(CC)c1-c1cc(OC)c2c(n1)CCCC2Nc1ccccc1C(N)=O` (stereo unspecified) stands above 10 µM; under `CCc1cccc(CC)c1-c1cc(OC(C)C)c2c(n1)CCCC2Nc1ccccc1CCO` (racemic), 0.007 µM.
Turning to `CCc1cccc(CC)c1-c1cc(OC)c2c(n1)CCCC2N(C)c1cc(OC)ccc1OC` (racemic), in data set [1], the concentration for half-maximal inhibition (IC50) amounted to 2.6 µM.
Turning to `COc1cc(-c2c(C)cccc2C)nc2c1C(N(C)c1c(C)cccc1C)CCC2` (racemic), the IC50 in data set [1] was above 10 µM.
For `COc1cccc(N(C)C2CCCc3nc(-c4c(C)cccc4C)cc(OC)c32)c1C` (racemic), the half-inhibitory concentration (IC50) in [1] is above 10 µM.
Consider `CCc1cccc(CC)c1-c1cc(OC)c2c(n1)CCCC2N(C)c1cc(-c2ccccc2)ccc1C` (racemic), for which the IC50 in data set [1] is above 10 µM.
For `CCc1cccc(CC)c1-c1cc(OC)c2c(n1)CCCC2N(C)c1cc(Cl)ccc1C` (racemic), the IC50 in data set [1] was found to be 2.6 µM.
